Laboratory results: ChEMBL document CHEMBL5608235, “Tricyclic Benzo[1,3]oxazinyloxazolidinones as Potent Antibacterial Agents against Drug-Resistant Pathogens” (J Med Chem, 2024)
In brackets after ≈: the same amount, converted by molar mass. Activity calls are given as the source filed them. The rule behind the calls is not given here.

Columns and labels:
Enterococcus faecalis [1] = experiment: Antibacterial activity against Enterococcus faecalis ATCC29212 assessed as inhibition of bacterial growth incubated for 18 hrs by microdilution broth assay; assay type: functional
Bacillus subtilis = experiment: Antibacterial activity against Bacillus subtilis ATCC6633 assessed as inhibition of bacterial growth incubated for 18 hrs by microdilution broth assay; assay type: functional
[2] = system: Mycobacterium tuberculosis; experiment: Antibacterial activity against Mycobacterium tuberculosis H37Rv assessed as inhibition of bacterial growth incubated for 7 days by alamar blue assay; assay type: functional; conditions: 168 h, time 7 day
Staphylococcus aureus [3] = experiment: Antibacterial activity against Staphylococcus aureus ATCC25923 assessed as inhibition of bacterial growth incubated for 18 hrs by microdilution broth assay; assay type: functional
[4] = Cytotoxicity against African green monkey Vero cells incubated for 48 hrs by MTT assay; assay type: toxicity, cell-based, Chlorocebus sabaeus
[5] = system: Staphylococcus epidermidis; experiment: Antibacterial activity against Staphylococcus epidermidis ATCC12228 assessed as inhibition of bacterial growth incubated for 18 hrs by microdilution broth assay; assay type: functional
[6] = Metabolic stability in ICR mouse liver microsomes assessed as substrate remaining at 10 uM incubated for 60 mins in presence of NADPH by LC-MS/MS analysis; assay type: ADME, Microsome; conditions: read-out: Stability
[7] = Metabolic stability in human liver microsomes assessed as substrate remaining at 10 uM incubated for 60 mins in presence of NADPH by LC-MS/MS analysis; assay type: ADME, Microsome; conditions: read-out: Stability
Staphylococcus aureus [8] = experiment: Antibacterial activity against methicillin resistant Staphylococcus aureus clinical isolate 20-1 assessed as inhibition of bacterial growth incubated for 7 days by alamar blue assay; assay type: functional; conditions: clinical isolate 20-1, 168 h, time 7 day
[9] = system: Staphylococcus epidermidis; experiment: Antibacterial activity against methicillin resistant Staphylococcus epidermidis clinical isolate 20-1 assessed as inhibition of bacterial growth incubated for 7 days by alamar blue assay; assay type: functional; conditions: clinical isolate 20-1, 168 h, time 7 day
[10] = Metabolic stability in human liver microsomes assessed as compound remaining at 10 uM incubated for 60 mins in absence of NADPH by LC-MS/MS analysis; assay type: ADME, Microsome; conditions: read-out: Stability
Staphylococcus aureus [11] = experiment: Antibacterial activity against vancomycin intermediate Staphylococcus aureus ATCC700699 assessed as inhibition of bacterial growth incubated for 7 days by alamar blue assay; assay type: functional; conditions: ATCC700699, 168 h, time 7 day
Staphylococcus aureus [12] = experiment: Antibacterial activity against Linezolid resistant Staphylococcus aureus clinical isolate 20-2 assessed as inhibition of bacterial growth incubated for 7 days by alamar blue assay; assay type: functional; conditions: clinical isolate 20-2, 168 h, time 7 day
Staphylococcus aureus [13] = experiment: Antibacterial activity against Linezolid resistant Staphylococcus aureus clinical isolate 20-1 assessed as inhibition of bacterial growth incubated for 7 days by alamar blue assay; assay type: functional; conditions: clinical isolate 20-1, 168 h, time 7 day
[14] = system: Staphylococcus epidermidis; experiment: Antibacterial activity against methicillin resistant Staphylococcus epidermidis clinical isolate 20-2 assessed as inhibition of bacterial growth incubated for 7 days by alamar blue assay; assay type: functional; conditions: clinical isolate 20-2, 168 h, time 7 day
Enterococcus faecalis [15] = experiment: Antibacterial activity against Linezolid resistant Enterococcus faecalis clinical isolate 20-2 assessed as inhibition of bacterial growth incubated for 7 days by alamar blue assay; assay type: functional; conditions: clinical isolate 20-2, 168 h, time 7 day
Enterococcus faecalis [16] = experiment: Antibacterial activity against Linezolid resistant Enterococcus faecalis clinical isolate 20-1 assessed as inhibition of bacterial growth incubated for 7 days by alamar blue assay; assay type: functional; conditions: clinical isolate 20-1, 168 h, time 7 day
Enterococcus = experiment: Antibacterial activity against vancomycin resistant Enterococcus clinical isolate 20-1 assessed as inhibition of bacterial growth incubated for 7 days by alamar blue assay; assay type: functional; conditions: clinical isolate 20-1, 168 h, time 7 day
Staphylococcus aureus [17] = experiment: Antibacterial activity against methicillin resistant Staphylococcus aureus clinical isolate 20-2 assessed as inhibition of bacterial growth incubated for 7 days by alamar blue assay; assay type: functional; conditions: clinical isolate 20-2, 168 h, time 7 day
[18] = Metabolic stability in ICR mouse liver microsomes assessed as compound remaining at 10 uM incubated for 60 mins in absence of NADPH by LC-MS/MS analysis; assay type: ADME, Microsome; conditions: read-out: Stability
Cell membrane = experiment: Disruption of cell membrane in methicillin resistant Staphylococcus aureus ATCC 33592 assessed as cell lysis at MIC incubated for 6 hrs by Scanning electron microscopic analysis; assay type: cell membranes

SMILES	MIC (Enterococcus faecalis [1]) [µg/mL]	MIC (Bacillus subtilis) [µg/mL]	MIC [2] [µg/mL]	MIC (Staphylococcus aureus [3]) [µg/mL]	IC50 at 48 h [4] [µg/mL]	MIC [5] [µg/mL]	other results
CC(=O)NC[C@@H]1OC(=O)N2Cc3cc(-c4ccnc(C#N)c4)c(F)cc3O[C@@H]12	1 (≈ 2.62 µM)	0.25 (≈ 0.654 µM)	1.85 (≈ 4.84 µM)	4 (≈ 10.5 µM)	> 64	1 (≈ 2.62 µM)	
CC(=O)NC[C@@H]1OC(=O)N2Cc3c(cc(F)c(-c4ccc(C#N)cc4)c3F)O[C@@H]12	0.25 (≈ 0.626 µM)	0.032 (≈ 0.0801 µM)	3.41 (≈ 8.54 µM)	2 (≈ 5.01 µM)		1 (≈ 2.5 µM)	
CC(=O)c1ccc(-c2c(F)cc3c(c2F)CN2C(=O)O[C@@H](CN)[C@@H]2O3)cc1	> 64	> 64	0.43 (≈ 1.15 µM)	64 (≈ 171 µM)	34 (≈ 90.8 µM)	64 (≈ 171 µM)	
Cc1ncc2n1-c1ccc(Cl)cc1C(c1ccccc1F)=NC2 [MIDAZOLAM]							remaining at 1 h, 10 µM [6]: 48.9%; remaining at 1 h, 10 µM [7]: 62%
CC(=O)NC[C@H]1OC(=O)N2Cc3c(cc(F)c(-c4ccc(-c5nnn(C)n5)nc4)c3F)O[C@H]12	> 64	> 64	> 32	> 64		> 64	
COC(=O)NC[C@@H]1OC(=O)N2Cc3cc(-c4ccc(C#N)nc4)c(F)cc3O[C@@H]12	0.5 (≈ 1.26 µM)	0.125 (≈ 0.314 µM)	0.97 (≈ 2.44 µM)	8 (≈ 20.1 µM)	33 (≈ 82.8 µM)	0.25 (≈ 0.628 µM)	MIC (Staphylococcus aureus [8]): 0.5 µg/mL (≈ 1.26 µM); MIC [9]: 0.25 µg/mL (≈ 0.628 µM); remaining at 1 h, 10 µM [10]: 114%; MIC (Staphylococcus aureus [11]): 1 µg/mL (≈ 2.51 µM); MIC (Staphylococcus aureus [12]): 16 µg/mL (≈ 40.2 µM); MIC (Staphylococcus aureus [13]): 16 µg/mL (≈ 40.2 µM); remaining at 1 h, 10 µM [6]: 116%; MIC [14]: 0.25 µg/mL (≈ 0.628 µM); MIC (Enterococcus faecalis [15]): 4 µg/mL (≈ 10 µM); MIC (Enterococcus faecalis [16]): 4 µg/mL (≈ 10 µM); MIC (Enterococcus): 1 µg/mL (≈ 2.51 µM); MIC (Staphylococcus aureus [17]): 0.5 µg/mL (≈ 1.26 µM); remaining at 1 h, 10 µM [18]: 113%; remaining at 1 h, 10 µM [7]: 103%
COc1ccc(-c2c(F)cc3c(c2F)CN2C(=O)O[C@@H](CN)[C@@H]2O3)cn1	> 64	64 (≈ 176 µM)	1.82 (≈ 5.01 µM)	64 (≈ 176 µM)		64 (≈ 176 µM)	
N#Cc1ccc(-c2c(F)cc3c(c2F)CN2C(=O)O[C@@H](CN)[C@@H]2O3)cc1	> 64	32 (≈ 89.6 µM)	0.99 (≈ 2.77 µM)	64 (≈ 179 µM)	8 (≈ 22.4 µM)	32 (≈ 89.6 µM)	
CC(=O)NC[C@H]1OC(=O)N2Cc3cc(-c4ccc(C#N)nc4)c(F)cc3O[C@@H]12	0.5 (≈ 1.31 µM)	0.125 (≈ 0.327 µM)	0.48 (≈ 1.26 µM)	0.125 (≈ 0.327 µM)	> 64		
CC(=O)NC[C@@H]1OC(=O)N2Cc3cc(-c4ccc(C(F)(F)F)nc4)c(F)cc3O[C@@H]12	1 (≈ 2.35 µM)	1 (≈ 2.35 µM)	6.7 (≈ 15.8 µM)	32 (≈ 75.2 µM)		0.5 (≈ 1.18 µM)	
N#Cc1ccc(-c2c(F)cc3c(c2F)CN2C(=O)O[C@@H](CN)[C@@H]2O3)cn1	> 64	> 64	0.5 (≈ 1.4 µM)	> 64	59 (≈ 165 µM)	64 (≈ 179 µM)	
CCCCCCCCCC(=O)N[C@@H](Cc1c[nH]c2ccccc12)C(=O)N[C@H](CC(N)=O)C(=O)N[C@@H](CC(=O)O)C(=O)N[C@@H]1C(=O)NCC(=O)N[C@@H](CCCN)C(=O)N[C@@H](CC(=O)O)C(=O)N[C@H](C)C(=O)N[C@@H](CC(=O)O)C(=O)NCC(=O)N[C@H](CO)C(=O)N[C@@H]([C@H](C)CC(=O)O)C(=O)N[C@@H](CC(=O)c2ccccc2N)C(=O)O[C@@H]1C							Activity (Cell membrane): Active
COc1cc(-c2cc3c(cc2F)O[C@H]2[C@H](CNC(C)=O)OC(=O)N2C3)ccn1	1 (≈ 2.58 µM)	0.5 (≈ 1.29 µM)	6.51 (≈ 16.8 µM)	4 (≈ 10.3 µM)	36 (≈ 92.9 µM)	2 (≈ 5.16 µM)	
